Assay [1] deals with T1, STAT3 protein extracted from MCF-7 cells (Homo sapiens, UniProt P40763).
T1 construct: Phosphorylated STAT3 protein (10 μg mL^−1) extracted from Michigan Cancer Foundation-7 (MCF-7) cells was used; endogenous in cells; host or cells: MCF-7
Kind of assay: Single nanoplasmonic biosensor (LSPR shift), dimerization step with STAT3 extracted from MCF-7 cells treated with STA-21. It counts as cell-based. The method, then:
Subsequently, the phosphorylation and the dimerization of STAT3 were conducted as follows. In the first step, after ˜50 nm AuNPs were immobilized onto a coverslip slide, all unbound AuNPs and contaminants were removed, and the surface of the amino-modified AuNPs was cleaned by injecting nuclease-free water for 1 h. In the second step, after STAT3 protein was conjugated to the AuNPs, 300 μL, of the STAT3 solution ([…] in 50 mM Tris-HCl buffer, pH 7.4, containing 150 mM NaCl and 25% glycerol) containing STAT3 protein (10 μg mL^−1) was injected into the immobilized AuNPs and incubated overnight. […]
(§1) The changes in the LSPR spectra of the single amino-modified AuNPs in response to STAT3 protein conjugation, STAT3 phosphorylation, dimerization or inhibition of STAT3 dimerization were recorded. […] The wavelength shift (Δλmax) was calculated using the following formula: λmax (after reaction)−λmax (before reaction).
The MCF-7 cells, human breast tumor cell lines, were cultured in Dulbecco's modified Eagle's medium (DMEM, Thermo Scientific, USA) containing 10% (v/v) fetal bovine serum (FBS, Thermo Scientific, USA) and 3% penicillin/streptomycin (Thermo Scientific, USA) at 37° C. in a humidified atmosphere containing 5% CO2. The inocula of cells were determined using a hemacytometer with a vital dye, trypan blue. […]

The target in assay [2] is T2, STAT3 protein (Homo sapiens, UniProt P40763). Kind of assay: Native polyacrylamide gel electrophoresis of STAT3 dimerization and its inhibition. Conditions: lane 4, with STA-21; 167 kDa dimer without inhibitor (lane 3); FIG. 5A. It counts as biochemical. The source says:
Analysis of STAT3 dimerization and inhibition of STAT3 dimerization was confirmed by native polyacrylamide gel electrophoresis on 6% native gels using a standard protocol (Y. Jv, B. Li and R. Cao, Chem. Commun., 2010, 46, 80178019). The samples which formed the dimerization and inhibited the dimerization were loaded into the 6% native gel running at a voltage of 10 V cm^−1.

Assay [3] has as its target T2, STAT3 protein. Nature of the assay: Single nanoplasmonic biosensor (LSPR shift), inhibition of STAT3 dimerization with recombinant STAT3. Set-up: purchased Sigma Aldrich (Korea). It counts as biochemical. The method, then: Individual amino-modified AuNPs, ˜50 nm AuNPs, were immobilized onto a glutaraldehyde coated coverslip slide (22×40×0.1 mm) by dropping 10 μL of the dilute amino-modified AuNP solution (FIG. 2). The glass slide was mounted to an RC-30HV closed-bath imaging chamber (Warner Instruments, USA) to visualize the AuNPs after the addition of adsorbates and reactants. The imaging chamber (Warner Instruments, USA) was subsequently inserted onto the holder of the darkfield microscope (Eclipse TE2000-U, Nikon, Japan), and the fluidic flow was set at 100 μL min^−1 by connection to a syringe pump (Harvard Apparatus).
Subsequently, the phosphorylation and the dimerization of STAT3 were conducted as follows. In the first step, after ˜50 nm AuNPs were immobilized onto a coverslip slide, all unbound AuNPs and contaminants were removed, and the surface of the amino-modified AuNPs was cleaned by injecting nuclease-free water for 1 h. […]
as §1

The values below come from US10458911B2, “Method for searching candidate material for anti-cancer drug using localized surface plasmon resonance” (KOREA UNIVERSITY RESEARCH AND BUSINESS FOUNDATION, priority 2015, dated 2019).

T2 sequence (P40763 whole entry): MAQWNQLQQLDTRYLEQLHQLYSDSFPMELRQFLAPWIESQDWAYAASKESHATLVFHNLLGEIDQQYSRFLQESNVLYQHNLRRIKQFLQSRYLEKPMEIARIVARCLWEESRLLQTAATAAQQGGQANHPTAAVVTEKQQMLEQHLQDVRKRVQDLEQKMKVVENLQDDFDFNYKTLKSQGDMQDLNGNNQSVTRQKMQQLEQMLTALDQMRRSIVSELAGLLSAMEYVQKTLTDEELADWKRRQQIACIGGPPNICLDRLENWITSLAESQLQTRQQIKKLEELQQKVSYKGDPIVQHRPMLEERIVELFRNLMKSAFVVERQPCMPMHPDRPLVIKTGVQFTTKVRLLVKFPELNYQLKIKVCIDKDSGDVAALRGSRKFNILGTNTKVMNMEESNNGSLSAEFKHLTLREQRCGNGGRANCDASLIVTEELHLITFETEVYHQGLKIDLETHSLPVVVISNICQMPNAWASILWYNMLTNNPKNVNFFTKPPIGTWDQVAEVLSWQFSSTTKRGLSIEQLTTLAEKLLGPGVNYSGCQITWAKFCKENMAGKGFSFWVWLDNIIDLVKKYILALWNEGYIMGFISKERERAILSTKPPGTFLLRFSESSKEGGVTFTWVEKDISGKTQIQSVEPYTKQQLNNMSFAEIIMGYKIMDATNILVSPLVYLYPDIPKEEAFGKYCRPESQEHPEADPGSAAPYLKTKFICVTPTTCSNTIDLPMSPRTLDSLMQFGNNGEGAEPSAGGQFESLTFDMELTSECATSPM
T1 sequence (P40763 2-770 limits assumed): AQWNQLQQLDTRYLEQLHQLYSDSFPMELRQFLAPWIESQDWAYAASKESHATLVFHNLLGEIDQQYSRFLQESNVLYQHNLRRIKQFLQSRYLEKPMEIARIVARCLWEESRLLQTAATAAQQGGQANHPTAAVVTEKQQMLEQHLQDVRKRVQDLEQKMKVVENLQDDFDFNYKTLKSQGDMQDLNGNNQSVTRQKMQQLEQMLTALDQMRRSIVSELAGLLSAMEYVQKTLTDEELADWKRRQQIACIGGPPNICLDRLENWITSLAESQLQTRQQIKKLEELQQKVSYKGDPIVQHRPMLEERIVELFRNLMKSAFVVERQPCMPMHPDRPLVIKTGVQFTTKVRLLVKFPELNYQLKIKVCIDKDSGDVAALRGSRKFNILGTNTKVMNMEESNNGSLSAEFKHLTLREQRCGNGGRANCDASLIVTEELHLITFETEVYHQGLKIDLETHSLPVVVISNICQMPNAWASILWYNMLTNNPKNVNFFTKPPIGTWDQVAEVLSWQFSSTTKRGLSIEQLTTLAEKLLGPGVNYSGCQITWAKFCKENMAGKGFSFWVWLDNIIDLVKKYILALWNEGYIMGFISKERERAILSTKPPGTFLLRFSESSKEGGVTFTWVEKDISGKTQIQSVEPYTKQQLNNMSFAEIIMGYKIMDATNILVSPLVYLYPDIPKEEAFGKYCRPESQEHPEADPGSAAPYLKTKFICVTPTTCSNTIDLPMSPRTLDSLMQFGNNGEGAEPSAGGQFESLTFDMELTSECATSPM

On to `C[C@@H]1CC(=O)c2c(ccc3c2C(=O)c2cccc(O)c2C3=O)C1` [STA-21], for which the STAT3 dimer formation result in assay [1] (STAT3 from MCF-7 cells treated with STA-21) was “did not form a STAT3 dimer”. In addition, the “red shift of the LSPR λmax for the dimerization step in the presence of inhibitor” value in assay [1] (STAT3 from MCF-7 cells treated with STA-21 for 24 h, 10.00 nm in the absence, FIG. 4C) was found to be 3.34 nm. Further, the “STAT3 species observed by Native PAGE” value in assay [2] is listed as 90 kDa monomer. Moreover, the “red shift of the LSPR λmax in the dimerization step in the presence of inhibitor” value in assay [3] (STA-21 1 μM, recombinant STAT3 protein, 9.00 nm in the absence, FIG. 4C) is 2.65 nm. Besides, the STAT3 dimerization inhibited in assay [3] (STA-21 at 10^3 nM, recombinant STAT3) came to 100%.
